# From patent publication US20040248926A1, “Preventive or remedy for pruritus” (priority 2001, published 2004)
# Experiments:
# Format in all cases: in vivo
# [1] = tested on: compound 48/80-induced scratching; experiment: Inhibitory effect on compound 48/80-induced scratching in mice; settings: for number of the scratching: mean ± standard error; for effect on compound 48/80-induced scratching (in words): mice, p.o.
# Experimental: The experiment was carried out according to the method of Kuraishi, et al. [Eur. J. Pharmacol., Vol. 275, pp. 229-233 (1995)).
# (§1) Male ddY mice each weighing 19 to 22 g (supplied by Japan SLC) were used in the test. 25 to 26 mice were put in each plastic cage and reared by allowing them to freely take commercially available solid feed and water, in an animal room at 19-25° C., 30-70% humidity and a 12 h lighting cycle (lighting: 7:00 a.m. to 7:00 p.m.) a day.
# 0.1 ml of a solution of compound 48/80 (by Sigma) (0.1 mg of compound 48/80 was dissolved in 1 ml of physiological saline) was subcutaneously injected into the right-side back shoulder of each mouse, and all the mice were individually put in a transparent cage. For 1 hour immediately after this, the behavior of every mouse was recorded with an 8-mm video camera recorder. The video was reproduced, and the number of the scratching by its right hind paw was counted for 1 hour immediately after the subcutaneous administration, at intervals of 5 minutes or 10 minutes, and the data of every 5 or 10 minutes were totaled. Each mouse scratched itself a few times per about one second, and a series of these actions of each mouse was counted as one.
# Compound 1 and Compound 2 were separately suspended in aqueous 0.5 w/v % methyl cellulose solution to have a concentration of 3 mg/ml. The suspension of Compound 1 was further diluted with aqueous 0.5w/v % methyl cellulose solution, and suspensions or solutions for administration each having an intended concentration were prepared. The solvent (aqueous 0.5 w/v % methyl cellulose solution) or the suspension or solution for administration was orally administered to each mouse, 30 minutes before the subcutaneous injection of the compound 48/80, and its volume was 10 ml/kg. The solvent-administered mice were a control group.
# [2] = tested on: poly-L-arginine-induced scratching; experiment: Inhibitory effect on poly-L-arginine-induced scratching; settings: rats
# Experimental: The experiment was carried out according to the method of Hayashi, et al. [Eur. J. Pharmacol., Vol. 425, pp. 219-227 (2001)].
# as §1, with “Male Wistar rats of 5 weeks” for “Male ddY mice each weighing 19 to 22 g”, “test. 4” for “test. 25”, “to 6 rats” for “to 26 mice”
# Every rat was shaven on the back, individually put in an acrylic monitor cage (200×145×170 mm), and acclimated therein for 30 minutes. 50 μl of a solution of poly-L-arginine (by Sigma) (4 mg of poly-L-arginine was dissolved in 1 ml of physiological saline) was intracutaneously injected into the interscapular region of each rat. For 30 minutes immediately after this, the behavior of every rat was recorded with a 8-mm video camera recorder. The video was reproduced, and the number of the scratching by its back paws at around the area where the solution had been intracutaneously injected was counted for 30 minutes immediately after the intracutaneous administration. Each rat scratched itself a few times per about one second, and a series of these actions of each rat was counted as one.
# Compound 1 was suspended in aqueous 0.5 w/v % methyl cellulose solution to have a concentration of 0.1 or 1 mg/ml. […]
# Acute toxicity test = settings: oral administration, male dd mice, mortality on the seventh day
# Experimental: The test compound was administered orally or intraperitoneally to three/group male dd mice (body weight: 20±1 g). The minimum lethal dose (MLD) was obtained by observing the mortality on the seventh day after the administration.
smiles,measurement,setting,value
"CC(C)(O)C(=O)Nc1cccc2c1C(=O)c1sccc1CS2(=O)=O [Compound 2, 2-hydroxy-2-methyl-N-(5,5,10-trioxo-4,10-dihydrothieno [3,2c][1]benzothiepin-9-yl)propanamide]",number of the scratching,"[1]; 30 mg/kg p.o., 0-10 min after subcutaneous injection, totaled, n = 10",10 ± 2
same,number of the scratching,"[1]; 30 mg/kg p.o., 10-20 min after subcutaneous injection, totaled, n = 10",11 ± 3
same,number of the scratching,"[1]; 30 mg/kg p.o., 20-30 min after subcutaneous injection, totaled, n = 10",14 ± 2
same,number of the scratching,"[1]; 30 mg/kg p.o., 30-40 min after subcutaneous injection, totaled, n = 10",14 ± 2
same,number of the scratching,"[1]; 30 mg/kg p.o., 40-50 min after subcutaneous injection, totaled, n = 10",14 ± 2
same,number of the scratching,"[1]; 30 mg/kg p.o., 50-60 min after subcutaneous injection, totaled, n = 10",14 ± 2
same,effect on compound 48/80-induced scratching (in words),[1],inhibited
"C[C@](O)(C(=O)Nc1cccc2c1C(=O)c1sccc1CS2(=O)=O)C(F)(F)F [Compound 1, (S)-(+)-3,3,3-trifluoro-2-hydroxy-2-methyl-N-(5,5,10-trioxo-4,10-dihydrothieno[3,2c][1]benzothiepin-9-yl)propanamide]",number of the scratching,"[1]; 3 mg/kg p.o., 0-5 min after subcutaneous injection of compound 48/80, totaled, n = 4",3 ± 1
same,number of the scratching,"[1]; 3 mg/kg p.o., 5-10 min after subcutaneous injection, totaled, n = 4",7 ± 2
same,number of the scratching,"[1]; 3 mg/kg p.o., 10-15 min after subcutaneous injection, totaled, n = 4",9 ± 1
same,number of the scratching,"[1]; 3 mg/kg p.o., 15-20 min after subcutaneous injection, totaled, n = 4",12 ± 4
same,number of the scratching,"[1]; 3 mg/kg p.o., 20-25 min after subcutaneous injection, totaled, n = 4",13 ± 4
same,number of the scratching,"[1]; 3 mg/kg p.o., 25-30 min after subcutaneous injection, totaled, n = 4",14 ± 5
same,number of the scratching,"[1]; 3 mg/kg p.o., 30-35 min after subcutaneous injection, totaled, n = 4",15 ± 5
same,number of the scratching,"[1]; 3 mg/kg p.o., 35-40 min after subcutaneous injection, totaled, n = 4",15 ± 5
same,number of the scratching,"[1]; 3 mg/kg p.o., 40-45 min after subcutaneous injection, totaled, n = 4",17 ± 6
same,number of the scratching,"[1]; 3 mg/kg p.o., 45-50 min after subcutaneous injection, totaled, n = 4",18 ± 6
same,number of the scratching,"[1]; 3 mg/kg p.o., 50-55 min after subcutaneous injection, totaled, n = 4",18 ± 6
same,number of the scratching,"[1]; 3 mg/kg p.o., 55-60 min after subcutaneous injection, totaled, n = 4",18 ± 6
same,number of the scratching,"[1]; 10 mg/kg p.o., 0-5 min after subcutaneous injection, totaled, n = 4",2 ± 1
same,number of the scratching,"[1]; 10 mg/kg p.o., 5-10 min after subcutaneous injection, totaled, n = 4",6 ± 2
same,number of the scratching,"[1]; 10 mg/kg p.o., 10-15 min after subcutaneous injection, totaled, n = 4",8 ± 2
same,number of the scratching,"[1]; 10 mg/kg p.o., 15-20 min after subcutaneous injection, totaled, n = 4",9 ± 2
same,number of the scratching,"[1]; 10 mg/kg p.o., 20-25 min after subcutaneous injection, totaled, n = 4",10 ± 3
same,number of the scratching,"[1]; 10 mg/kg p.o., 25-30 min after subcutaneous injection, totaled, n = 4",10 ± 3
same,number of the scratching,"[1]; 10 mg/kg p.o., 30-35 min after subcutaneous injection, totaled, n = 4",11 ± 3
same,number of the scratching,"[1]; 10 mg/kg p.o., 35-40 min after subcutaneous injection, totaled, n = 4",11 ± 3
same,number of the scratching,"[1]; 10 mg/kg p.o., 40-45 min after subcutaneous injection, totaled, n = 4",12 ± 3
same,number of the scratching,"[1]; 10 mg/kg p.o., 45-50 min after subcutaneous injection, totaled, n = 4",12 ± 3
same,number of the scratching,"[1]; 10 mg/kg p.o., 50-55 min after subcutaneous injection, totaled, n = 4",12 ± 3
same,number of the scratching,"[1]; 10 mg/kg p.o., 55-60 min after subcutaneous injection, totaled, n = 4",12 ± 3
same,number of the scratching,"[1]; 30 mg/kg p.o., 0-5 min after subcutaneous injection, totaled, n = 4",0 ± 0
same,number of the scratching,"[1]; 30 mg/kg p.o., 5-10 min after subcutaneous injection, totaled, n = 4",0 ± 0
same,number of the scratching,"[1]; 30 mg/kg p.o., 10-15 min after subcutaneous injection, totaled, n = 4",1 ± 1
same,number of the scratching,"[1]; 30 mg/kg p.o., 15-20 min after subcutaneous injection, totaled, n = 4",2 ± 1
same,number of the scratching,"[1]; 30 mg/kg p.o., 20-25 min after subcutaneous injection, totaled, n = 4",3 ± 1
same,number of the scratching,"[1]; 30 mg/kg p.o., 25-30 min after subcutaneous injection, totaled, n = 4",3 ± 1
same,number of the scratching,"[1]; 30 mg/kg p.o., 30-35 min after subcutaneous injection, totaled, n = 4",4 ± 1
same,number of the scratching,"[1]; 30 mg/kg p.o., 35-40 min after subcutaneous injection, totaled, n = 4",4 ± 1
same,number of the scratching,"[1]; 30 mg/kg p.o., 40-45 min after subcutaneous injection, totaled, n = 4",4 ± 1
same,number of the scratching,"[1]; 30 mg/kg p.o., 45-50 min after subcutaneous injection, totaled, n = 4",4 ± 1
same,number of the scratching,"[1]; 30 mg/kg p.o., 50-55 min after subcutaneous injection, totaled, n = 4",4 ± 1
same,number of the scratching,"[1]; 30 mg/kg p.o., 55-60 min after subcutaneous injection, totaled, n = 4",4 ± 1
same,effect on compound 48/80-induced scratching (in words),[1],inhibited
same,Number of Scratching Actions for 30 minutes,"[2]; 10 mg/kg p.o., 2 hours before intracutaneous poly-L-arginine, mean ± standard error, n = 8",14 ± 3
same,effect on poly-L-arginine-induced pruritic behavior (in words),[2]; p.o.,inhibited
same,minimum lethal dose (MLD),Acute toxicity test,> 1000 mg/kg
